Values quoted from earlier work in patent US9226984B2, “Entrapment of radionuclides in nanoparticle compositions” (Technical University of Denmark and Rigshospitalet, priority 2010, dated 2016).

Settings: ionophore-assisted loading

## Oc1cccc2cccnc12 [oxine, 8-hydroxyquinoline]
  64Cu2+ retention of liposomes loaded with the ionophore: unstable liposomes
